Measured values from US6527690B2, “Purification of phenyl ester salts” (priority 2000, dated 2003).

What was measured:
[1] = Measurement of perhydrolysis rate of formulated beads; details: 5 minutes, 10° C.
Description: To determine its perhydrolysis rate, the phenyl ester salt was formulated into beads. The beads were typically formulated using a powder or solid phenyl ester salt with a surfactant and a chelating agent. A typical formulation is shown below: […]
The dry materials were weighed, charged into a one-gallon sigma blade mixer and dry mixed for 1 minute. While mixing, water was added and mixing was continued for about 17.5 minutes. The wet mix bulk density was determined by measuring weight/volume. The material was extruded using the Luwa DG-L I at 90 rpm (using a 0.7 mm/I mm, 19.7% open area die). The extrusion was rounded for 1 minute at 1,350 rpm in the Luwa QJ-230 Marumerizer, followed by drying for 20 minutes at 115° C. in a Luwa MDB-400 fluid bed.
Perhydrolysis rate is the percentage of a phenyl ester salt that has undergone perhydrolysis in a specified period of time and at a specific temperature. For the purposes of these examples, perhydrolysis rate is measured at 5 and 30 minutes intervals at 10° C.
The perhydrolysis rate of a phenyl ester salt is measured by adding a weighed quantity of formulated beads comprising the phenyl ester salt, a reference detergent, and sodium […] monohydrate to a synthetic hard water solution in a chilled dissolution vessel (Sotax Model AT7, modified with a emersion chiller). The solution is maintained at 10° C. and stirred at 150 rpm. […]

[2] = Hydrolysis of phenyl ester salt in water at elevated temperature (water crystallization); format: physicochemical
Description: Phenyl ester salts may also be recrystallized from aqueous solutions. At first glance, the use of water (or an alcohol) as a solvent to replace acetic acid typically used for the purification of crude phenyl ester salts is not an obvious choice. Japanese Patent No. 6-306,042 (1995), for example, reports that compounds related to phenyl ester salts in water or alcohol are subject to hydrolysis or solvolysis at elevated temperatures. Indeed, initial work on water crystallization confirmed that phenyl ester salts, such as Compound (1), did undergo hydrolysis at elevated temperatures. Typical losses of Compound (1) were in the range of 5-7.5% at 90° C.

sodium nonanamidohexanoyloxybenzenesulfonate [Compound (1)]
Five minute perhydrolysis rate ([1]; beads prepared from crystallized Compound (1)): 20% | Five minute perhydrolysis rate ([1]; beads prepared from spray-dried Compound (1)): 100% | Hydrolysis ([2]; 90° C., operating at a pH range of 4-6): about 2.2% | Typical losses by hydrolysis ([2]; water crystallization at 90° C., pH not controlled): 5-7.5%
